Assay results taken from US20210353648A1, “GRAPIPRANT UNIT DOSAGE FORMS” (Arrys Therapeutics, Inc., priority 2018, published 2021).
Where two headings read alike, the source gives them in different places.

Test: Phase 1 single ascending dose study of grapiprant OPC: pharmacokinetics
Type: in vivo, human
Settings: for AUC(0-t) / Cmax / AUC(0-inf) / Tmax / half-life: human, oral, serum
Description: Eligible subjects were to be enrolled into 8 sequential cohorts, corresponding to the planned dose levels of 1 mg, 3 mg, 10 mg, 30 mg, 100 mg, 300 mg, 600 mg, and 1000 mg. […] After determining a maximum tolerated dose (MTD), or after completing the highest dose cohort if a MTD was not determined, Cohort 11 would be enrolled to increase the number of subjects evaluated at the MTD (or the highest dose).
In each dosing period, subjects were confined to the Clinical Research Unit (CRU) for approximately 60 hours (from approximately 36 hours predose through 24 hours postdose), and were instructed to return to the study site at 48 hours postdose for collection of blood samples for safety and pharmacokinetic evaluations. Subjects had triplicate ECG measurements made at select time-points on Day 0 (to provide a time-matched baseline) and through 24 hours postdose. Continuous cardiac monitoring by telemetry was performed for 12 hours postdose (or up to 24 hours, if warranted, based on the pharmacokinetic data). Creatine phosphokinase (CPK; total CPK and CPK-MB isoenzyme) and troponin I levels were monitored predose and at 12 and 24 hours postdose. In each dosing period, blood samples were collected predose and at 0.5, 1, 1.5, 2, 2.5, 3, 4, 6, 8, 12, 16, 24, and 48 hours postdose for pharmacokinetic evaluation. Fecal occult blood was monitored predose and through 48 hours postdose. Urine was collected through 24 hours postdose for exploratory biotransformation analyses. Since grapiprant may be a substrate of efflux transporters, genotyping for P-gp, an efflux transporter, was also planned for this study.
Pharmacokinetics: The maximum observed serum concentration (Cmax) of grapiprant was estimated directly from raw serum concentration-time data with Tmax defined as the time of the first occurrence of Cmax. The apparent terminal elimination rate constant (kel) was estimated using least-squares regression analysis of the serum concentration-time data obtained during the terminal log-linear phase. The apparent terminal half-life (T½) was calculated as In 2/kel. Areas under the serum concentration-time curve from time 0 to the last time (Tlast) with a quantifiable concentration [AUC(Tlast)] were estimated using linear/log trapezoidal approximation. Areas under the serum concentration-time curve from time Tlast to infinity [AUC(Tlast-inf)] were estimated as Cpest/kel, where Cpest represented the estimated concentration at time Tlast based on the aforementioned regression analysis. Areas under the serum concentration-time curve from time 0 to infinity [AUC(inf)] were estimated as the sum of AUC(Tlast) and AUC(Tlast-inf). […] Individual serum concentrations of grapiprant were summarized in tabular and graphical form. Concentrations that were determined to be below the lower limit of quantification were assumed to be equal to zero for the pharmacokinetic analyses and mean concentration-time plots.
The 600 mg dose was studied in 2 separate cohorts. The second of these two cohorts was conducted to confirm safety assessments at this dose strength. For the pharmacokinetic analysis, pharmacokinetic parameters of both cohorts were pooled together and analyzed as a single group.

[1] = single 1 mg dose as OPC, fasted, healthy adults, mean
[2] = single 3 mg dose as OPC, fasted, healthy adults, mean
[3] = single 10 mg dose as OPC, fasted, healthy adults, mean
[4] = single 30 mg dose as OPC, fasted, healthy adults, mean
[5] = single 100 mg dose as OPC, fasted, healthy adults, mean
[6] = single 300 mg dose as OPC, fasted, healthy adults, mean
[7] = single 600 mg dose as OPC, fasted, healthy adults, mean
[8] = single 1000 mg dose as OPC, fasted, healthy adults, mean
[9] = single 1500 mg dose as OPC, fasted, healthy adults, mean
[10] = single 2000 mg dose as OPC, fasted, healthy adults, mean

Question: With `CCc1nc2c(C)nc(C)cc2n1-c1ccc(CCNC(=O)NS(=O)(=O)c2ccc(C)cc2)cc1` [Grapiprant, N-((4-(2-ethyl-4,6-dimethyl-1H-imidazo[4,5-c]pyridin-1-yl)phenethyl)carbamoyl)-4-methylbenzenesulfonamide] as the compound, how does the “increase of mean serum exposure parameters with dose” value (between the 100 mg and 600 mg dose levels, OPC, fasted) read?
Answer: Its value is “greater than dose-proportional increases”.

Question: What about the AUC(0-t) [1] of the same compound?
Answer: Its AUC(0-t) is 59.1 ng·h/mL.

Question: And the Cmax [1]?
Answer: The Cmax was 6.59 ng/mL.

Question: What about the AUC(0-inf) [2] of the same compound?
Answer: Its AUC(0-inf) is 260 ng·h/mL.

Question: And the AUC(0-t) [2]?
Answer: Its AUC(0-t) is 246 ng·h/mL.

Question: What about the Cmax [2] of the same compound?
Answer: Its Cmax is 23.1 ng/mL.

Question: What about the AUC(0-inf) [3] of the same compound?
Answer: The AUC(0-inf) was 917 ng·h/mL.

Question: And the AUC(0-t) [3]?
Answer: The AUC(0-t) was 901 ng·h/mL.

Question: And the Cmax [3]?
Answer: The Cmax was 110 ng/mL.

Question: What about the AUC(0-inf) [4] of the same compound?
Answer: Its AUC(0-inf) is 2150 ng·h/mL.

Question: What about the AUC(0-t) [4] of the same compound?
Answer: The AUC(0-t) was 2120 ng·h/mL.

Question: What about the Cmax [4] of the same compound?
Answer: Its Cmax is 262 ng/mL.

Question: What about the AUC(0-inf) [5] of the same compound?
Answer: The AUC(0-inf) was 7220 ng·h/mL.

Question: What about the AUC(0-t) [5] of the same compound?
Answer: The AUC(0-t) was 7170 ng·h/mL.

Question: What about the Cmax [5] of the same compound?
Answer: The Cmax was 1440 ng/mL.

Question: And the AUC(0-inf) [6]?
Answer: The AUC(0-inf) was 31300 ng·h/mL.

Question: What about the AUC(0-t) [6] of the same compound?
Answer: The AUC(0-t) was 31200 ng·h/mL.

Question: And the Cmax [6]?
Answer: The Cmax was 12000 ng/mL.

Question: And the AUC(0-inf) [7]?
Answer: Its AUC(0-inf) is 92500 ng·h/mL.

Question: What about the AUC(0-t) [7] of the same compound?
Answer: Its AUC(0-t) is 92200 ng·h/mL.

Question: And the Cmax [7]?
Answer: Its Cmax is 45000 ng/mL.

Question: And the AUC(0-inf) [8]?
Answer: Its AUC(0-inf) is 175000 ng·h/mL.

Question: And the AUC(0-t) [8]?
Answer: Its AUC(0-t) is 174000 ng·h/mL.

Question: And the Cmax [8]?
Answer: Its Cmax is 64300 ng/mL.

Question: And the AUC(0-inf) [9]?
Answer: Its AUC(0-inf) is 242000 ng·h/mL.

Question: And the AUC(0-t) [9]?
Answer: Its AUC(0-t) is 242000 ng·h/mL.

Question: What about the Cmax [9] of the same compound?
Answer: Its Cmax is 83800 ng/mL.

Question: And the AUC(0-inf) [10]?
Answer: The AUC(0-inf) was 479000 ng·h/mL.

Question: And the AUC(0-t) [10]?
Answer: Its AUC(0-t) is 478000 ng·h/mL.

Question: And the Cmax [10]?
Answer: Its Cmax is 134000 ng/mL.

Question: And the Tmax (1 mg, single 1 mg dose as OPC, fasted, healthy adults, median, read-out: Tmax)?
Answer: Its Tmax is 2.5 h.

Question: And the half-life (3 mg, single 3 mg dose as OPC, fasted, healthy adults, mean, read-out: T½ (converted))?
Answer: Its half-life is 320 min.

Question: And the Tmax (3 mg, single 3 mg dose as OPC, fasted, healthy adults, median, read-out: Tmax)?
Answer: Its Tmax is 3 h.

Question: What about the half-life (10 mg, single 10 mg dose as OPC, fasted, healthy adults, mean, read-out: T½ (converted)) of the same compound?
Answer: Its half-life is 306 min.

Question: And the Tmax (10 mg, single 10 mg dose as OPC, fasted, healthy adults, median, read-out: Tmax)?
Answer: The Tmax was 2 h.

Question: What about the half-life (30 mg, cohorts with clear bi-exponential decline (30 mg and above), read-out: mean terminal phase T1/2) of the same compound?
Answer: The half-life was 368 to 565 min.

Question: What about the half-life (30 mg, single 30 mg dose as OPC, fasted, healthy adults, mean, read-out: T½ (converted)) of the same compound?
Answer: Its half-life is 368 min.

Question: What about the Tmax (30 mg, single 30 mg dose as OPC, fasted, healthy adults, median, read-out: Tmax) of the same compound?
Answer: The Tmax was 1 h.

Question: And the Tmax (100 mg, doses of 100 mg and above, OPC, fasted, read-out: individual Tmax values)?
Answer: The Tmax was 0.5 to 1 h.

Question: And the half-life (100 mg, single 100 mg dose as OPC, fasted, healthy adults, mean, read-out: T½ (converted))?
Answer: Its half-life is 415 min.

Question: And the Tmax (100 mg, single 100 mg dose as OPC, fasted, healthy adults, median, read-out: Tmax)?
Answer: The Tmax was 0.75 h.

Question: What about the half-life (300 mg, single 300 mg dose as OPC, fasted, healthy adults, mean, read-out: T½ (converted)) of the same compound?
Answer: Its half-life is 479 min.

Question: And the Tmax (300 mg, single 300 mg dose as OPC, fasted, healthy adults, median, read-out: Tmax)?
Answer: Its Tmax is 0.75 h.

Question: What about the half-life (600 mg, single 600 mg dose as OPC, fasted, healthy adults, mean, read-out: T½ (converted)) of the same compound?
Answer: Its half-life is 482 min.

Question: What about the Tmax (600 mg, single 600 mg dose as OPC, fasted, healthy adults, median, read-out: Tmax) of the same compound?
Answer: Its Tmax is 0.5 h.

Question: What about the half-life (1000 mg, single 1000 mg dose as OPC, fasted, healthy adults, mean, read-out: T½ (converted)) of the same compound?
Answer: Its half-life is 565 min.

Question: And the Tmax (1000 mg, single 1000 mg dose as OPC, fasted, healthy adults, median, read-out: Tmax)?
Answer: The Tmax was 1 h.

Question: And the half-life (1500 mg, single 1500 mg dose as OPC, fasted, healthy adults, mean, read-out: T½ (converted))?
Answer: Its half-life is 488 min.

Question: What about the Tmax (1500 mg, single 1500 mg dose as OPC, fasted, healthy adults, median, read-out: Tmax) of the same compound?
Answer: Its Tmax is 0.75 h.

Question: What about the half-life (2000 mg, single 2000 mg dose as OPC, fasted, healthy adults, mean, read-out: T½ (converted)) of the same compound?
Answer: The half-life was 495 min.

Question: What about the Tmax (2000 mg, single 2000 mg dose as OPC, fasted, healthy adults, median, read-out: Tmax) of the same compound?
Answer: The Tmax was 1 h.

Question: What about the Tmax (across the dose groups, 1 mg to 2000 mg OPC, fasted, read-out: median Tmax estimates) of the same compound?
Answer: Its Tmax is 0.5 to 3 h.

Question: And the half-life (over the range of doses studied, OPC, fasted, read-out: mean terminal phase T1/2)?
Answer: Its half-life is 306 to 565 min.

Question: And the serum concentration-time profile (single oral dose of OPC formulation, about 1 mg to 2000 mg)?
Answer: The serum concentration-time profile was “rapid absorption followed by a bi-exponential decline in serum concentration”.
